Laboratory results: US10071095B2, “1,2,4-triazolo [4,3-A] pyridine derivatives and their use for the treatment of neurological and psychiatric disorders” (JANSSEN PHARMACEUTICALS, INC., priority 2009, dated 2018)

Each compound was assayed against T1, human mGluR2 receptor (Homo sapiens, UniProt Q14416) (assay: [35S]GTPγS binding assay, positive allosteric modulation (GTPγS-PAM) in presence of EC20 glutamate). Conditions: in presence of glutamate at EC20; average pEC50 if more experiments; ‡ means tested once.
T1 construct: expressed in transfected cells; host or cells: CHO cells
T1 sequence (Q14416 19-872): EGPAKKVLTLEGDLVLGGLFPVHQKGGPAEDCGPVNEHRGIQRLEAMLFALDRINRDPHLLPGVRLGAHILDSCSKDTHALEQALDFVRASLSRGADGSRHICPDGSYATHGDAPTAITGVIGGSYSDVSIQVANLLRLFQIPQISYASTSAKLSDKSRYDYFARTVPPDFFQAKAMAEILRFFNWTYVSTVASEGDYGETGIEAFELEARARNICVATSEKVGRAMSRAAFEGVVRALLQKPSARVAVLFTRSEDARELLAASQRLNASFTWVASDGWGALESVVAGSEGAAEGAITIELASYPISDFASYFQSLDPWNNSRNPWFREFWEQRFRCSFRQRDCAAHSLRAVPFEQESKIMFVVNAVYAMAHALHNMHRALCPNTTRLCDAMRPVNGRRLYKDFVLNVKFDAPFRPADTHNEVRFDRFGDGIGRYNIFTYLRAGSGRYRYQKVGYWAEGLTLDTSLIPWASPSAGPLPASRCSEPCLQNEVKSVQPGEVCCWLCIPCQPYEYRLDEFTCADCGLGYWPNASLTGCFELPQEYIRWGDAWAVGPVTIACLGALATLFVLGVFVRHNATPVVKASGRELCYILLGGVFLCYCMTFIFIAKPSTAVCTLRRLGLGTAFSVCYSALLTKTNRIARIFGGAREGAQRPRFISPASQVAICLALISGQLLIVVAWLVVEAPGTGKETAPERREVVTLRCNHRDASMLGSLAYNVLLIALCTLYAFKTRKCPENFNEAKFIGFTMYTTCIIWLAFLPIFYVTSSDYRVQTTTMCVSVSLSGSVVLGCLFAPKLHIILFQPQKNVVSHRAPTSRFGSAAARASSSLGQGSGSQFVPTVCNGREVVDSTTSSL
Format: biochemical
Outline: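 Membranes from butyrate-stimulated CHO cells expressing human mGluR2 (7 μg protein) preincubated 30 min at 30°C with compound plus ~EC20 glutamate in HEPES pH 7.4, 100 mM NaCl, 3 mM MgCl2, 10 μM GDP, 10 μg/ml saponin. [35S]GTPγS (0.1 nM) incorporation over 30 min at 30°C measured by filtration and scintillation counting.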

| Compound | GTPγS - hR2 PAM pEC50 |
| --- | --- |
| Fc1ccc(N2C[C@@H]3CN(c4ccn5c(CC6CC6)nnc5c4Cl)C[C@@H]3C2)c(F)c1 [compound 186] | 7.27 |
| Fc1ccc(N2CCCC3(C2)CN(c2ccn4c(CC5CC5)nnc4c2C(F)(F)F)C3)c(F)c1 [compound 188] | 8‡ |
| Fc1ccccc1NC1CN(c2ccn3c(CC4CC4)nnc3c2C(F)(F)F)C1 [compound 189] | 6.4 |
| Fc1ccccc1NC1CN(c2ccn3c(CC4CC4)nnc3c2Cl)C1 [compound 190] | 6.5 |
| C[C@H]1CN(c2ccn3c(CC(F)(F)F)nnc3c2Cl)CCN1c1cc(F)cc(F)c1 [compound 191] | 6.76 |
| C[C@@H]1CN(c2ccn3c(CC(F)(F)F)nnc3c2Cl)CCN1c1cc(F)cc(F)c1 [compound 192] | 6.63 |
| CC1(c2ccccc2F)CCN(c2ccn3c(CC4CC4)nnc3c2C(F)(F)F)CC1 [compound 193] | 8.26 |
| CC1(c2cccc(F)c2)CCN(c2ccn3c(CC4CC4)nnc3c2C(F)(F)F)CC1 [compound 197] | 7.82‡ |
| Fc1ccc(N2CC3(CCN(c4ccn5c(CC6CC6)nnc5c4C(F)(F)F)CC3)C2)c(F)c1 [compound 201] | 6.9 |
| Fc1ccc(NC2CCN(c3ccn4c(CC5CC5)nnc4c3C(F)(F)F)CC2)c(F)c1 [compound 203] | 6.73 |
| N#Cc1c(N2CCC(c3ccccc3)CC2)ccn2c(-c3ccccc3)nnc12 [compound 205] | 6.61‡ |
| FC(F)(F)c1c(N2CCC(NCc3ccccc3)CC2)ccn2c(CC3CC3)nnc12 [compound 230] | 5.61‡ |
| Fc1ccc(CN2CCCC3(C2)CN(c2ccn4c(CC5CC5)nnc4c2C(F)(F)F)C3)c(F)c1 [compound 232] | 7.64 |

Next, values leading:

| GTPγS - hR2 PAM pEC50 | Compound |
| --- | --- |
| 6.19 | Cc1c(N2CCC(c3ccccc3)(C(F)(F)F)CC2)ccn2c(CC3CC3)nnc12 [compound 187] |
| 7.69 | CC1(c2ccc(F)cc2)CCN(c2ccn3c(CC4CC4)nnc3c2C(F)(F)F)CC1 [compound 194] |
| 7.98 | Fc1ccc(C2CCN(c3ccn4c(CC5CC5)nnc4c3C(F)(F)F)CC2)c(F)c1 [compound 195] |
| 7.06 | Fc1ccc(N2CCN(c3ccn4c(CC5CC5)nnc4c3C(F)(F)F)CC2)c(F)c1 [compound 196] |
| 6.29‡ | FC(F)(F)c1c(N2CCC(c3cccnc3)CC2)ccn2c(CC3CC3)nnc12 [compound 198] |
| 6.8 | Cc1cc(C2CCN(c3ccn4c(CC5CC5)nnc4c3C(F)(F)F)CC2)ccn1 [compound 199] |
| 7.86‡ | Fc1ccc(N2CCC3(CCN(c4ccn5c(CC6CC6)nnc5c4C(F)(F)F)CC3)C2)c(F)c1 [compound 202] |
| 6.5 | Fc1ccc(N2CC3(CCN(c4ccn5c(CC6CC6)nnc5c4Cl)CC3)C2)c(F)c1 [compound 210] |
| 6.03‡ | O=C1N(c2ccc(F)cc2F)CC12CCN(c1ccn3c(CC4CC4)nnc3c1Cl)CC2 [compound 213] |
| 5.6‡ | Fc1ccc(CN2CCN(c3ccn4c(CC5CC5)nnc4c3Cl)CC2)c(F)c1 [compound 215] |
| 6.68 | FC(F)(F)c1c(N2CCN(CCc3ccccc3)CC2)ccn2c(CC3CC3)nnc12 [compound 216] |
| 6.05‡ | FC(F)(F)c1cccc(CN2CCN(c3ccn4c(CC5CC5)nnc4c3Cl)CC2)c1 [compound 218] |
| 6.03‡ | FC(F)(F)C1CCC(N2CCN(c3ccn4c(CC5CC5)nnc4c3Cl)CC2)CC1 (stereo not shown) [compound 223] |
| 6.31‡ | Fc1ccc(CN2CCN(c3ccn4c(CC5CC5)nnc4c3C(F)(F)F)CC2)c(F)c1 [compound 227] |

Same assay, conditions: in presence of glutamate at EC20; average pEC50 if more experiments; ‡ means tested once; read-out: GTPγS - hR2 PAM pEC50 (converted)

| EC50 [nM] | Compound |
| --- | --- |
| 3.55 | CC1(C)OC2(CCN(c3ccn4c(CC5CC5)nnc4c3C(F)(F)F)CC2)c2ccc(F)cc21 [compound 200, 1′-[3-(Cyclopropylmethyl)-8-(trifluoromethyl)-1,2,4-triazolo[4,3-a]pyridin-7-yl]-5-fluoro-3,3-dimethyl-spiro[isobenzofuran-1(3H),4′-piperidine]] |
